From patent US9365522B2, “Pyrazole amide derivative” (AMGEN INC., priority 2015, dated 2016)

Target: T1, human RORγ-LBD (Homo sapiens, UniProt P51449)
T1 construct: made in house; host or cells: E. coli (BL-21)
T1 sequence (P51449 262-518): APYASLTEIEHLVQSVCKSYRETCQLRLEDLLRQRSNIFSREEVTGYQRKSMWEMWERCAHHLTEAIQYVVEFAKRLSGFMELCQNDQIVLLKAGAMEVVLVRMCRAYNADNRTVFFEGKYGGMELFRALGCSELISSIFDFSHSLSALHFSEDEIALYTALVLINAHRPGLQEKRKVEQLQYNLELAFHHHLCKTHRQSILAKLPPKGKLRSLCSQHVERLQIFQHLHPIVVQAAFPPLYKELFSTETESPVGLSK
Assay: ROR gamma coactivator peptide recruitment Alphascreen assay (RORγ-LBD binding to GRIP1 coactivator peptide)
Type: biochemical
Settings: 5 nM human RORγ-LBD, 30 nM 7-β-hydroxycholesterol, 50 nM biotinylated GRIP1 coactivator peptide, overnight incubation at room temperature; read-out: result (pIC50, RORγ coactivator peptide recruitment Alphascreen assay) (converted)
Outline: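 Alphascreen proximity read-out after overnight room-temperature incubation, yielding pIC50 from 1-in-2 compound series (2.5% DMSO final). Mixture: 50 nM biotin-GRIP1 peptide, 30 nM 7-β-hydroxycholesterol agonist, 5 nM recombinant 6×His:Flag human RORγ-LBD (aa 262-518), 50 mM HEPES pH 7.4.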

Row | IC50 | SMILES
1 | 0.933 nM | Cc1cc(Cl)c(C(=O)CN(CC2(C)CCC2)C(=O)c2cnn([C@H]3CC[C@](C)(C(=O)O)CC3)c2C(F)(F)F)c(Cl)c1 [Example 731, trans-4-(4-((2-(2,6-dichloro-4-methylphenyl)-2-oxoethyl)((1-methylcyclobutyl)methyl)carbamoyl)-5-(trifluoromethyl)-1H-pyrazol-1-yl)-1-methylcyclohexanecarboxylic acid]
2 | 10 nM | C[C@]1(C(=O)O)CC[C@H](n2ncc(C(=O)N(CC(=O)c3c(Cl)cncc3Cl)CC3CCC3)c2C(F)(F)F)CC1 [Example 734, trans-4-(4-((cyclobutylmethyl)(2-(3,5-dichloro-4-pyridinyl)-2-oxoethyl)carbamoyl)-5-(trifluoromethyl)-1H-pyrazol-1-yl)-1-methylcyclohexanecarboxylic acid]
3 | 2.75 nM | C[C@]1(C(=O)O)CC[C@H](n2ncc(C(=O)N(CC(=O)c3c(Cl)cncc3Cl)CC3CCCCC3)c2C(F)(F)F)CC1 [Example 735]
4 | 2.63 nM | CCC1(CN(CC(=O)c2c(Cl)cncc2Cl)C(=O)c2cnn([C@H]3CC[C@](C)(C(=O)O)CC3)c2C(F)(F)F)CCC1 [Example 742, trans-4-(4-((2-(3,5-dichloro-4-pyridinyl)-2-oxoethyl)((1-ethylcyclobutyl)methyl)carbamoyl)-5-(trifluoromethyl)-1H-pyrazol-1-yl)-1-methylcyclohexanecarboxylic acid]
5 | 2.24 nM | CC1(C)C[C@H]1CN(CC(=O)c1c(Cl)cncc1Cl)C(=O)c1cnn([C@H]2CC[C@](C)(C(=O)O)CC2)c1C(F)(F)F [Example 743, trans-4-(4-((2-(3,5-dichloro-4-pyridinyl)-2-oxoethyl)(((1S)-2,2-dimethylcyclopropyl)methyl)carbamoyl)-5-(trifluoromethyl)-1H-pyrazol-1-yl)-1-methylcyclohexanecarboxylic acid]
6 | 0.589 nM | CCC1(CN(CC(=O)c2c(Cl)cc(C)cc2Cl)C(=O)c2cnn([C@H]3CC[C@](C)(C(=O)O)CC3)c2C(F)(F)F)CCC1 [Example 744, trans-4-(4-((2-(2,6-dichloro-4-methylphenyl)-2-oxoethyl)((1-ethylcyclobutyl)methyl)carbamoyl)-5-(trifluoromethyl)-1H-pyrazol-1-yl)-1-methylcyclohexanecarboxylic acid]
7 | 3.39 nM | C[C@]1(C(=O)O)CC[C@H](n2ncc(C(=O)N(CC(=O)c3c(Cl)cncc3Cl)[C@H]3CCC34CCC4)c2C(F)(F)F)CC1 [Example 748, trans-4-(4-((2-(3,5-dichloro-4-pyridinyl)-2-oxoethyl)((1S)-spiro[3.3]hept-1-yl)carbamoyl)-5-(trifluoromethyl)-1H-pyrazol-1-yl)-1-methylcyclohexanecarboxylic acid]
8 | 60.3 nM | C[C@]1(C(=O)O)CC[C@H](n2ncc(C(=O)N(CC(=O)c3c(Cl)cncc3Cl)[C@@H]3CCC34CCC4)c2C(F)(F)F)CC1 [Example 749, trans-4-(4-((2-(3,5-dichloro-4-pyridinyl)-2-oxoethyl)((1R)-spiro[3.3]hept-1-yl)carbamoyl)-5-(trifluoromethyl)-1H-pyrazol-1-yl)-1-methylcyclohexanecarboxylic acid]

More lines, now with the values behind:

Row | SMILES | IC50
9 | Cc1cc(Cl)c(C(=O)CN(C(=O)c2cnn([C@H]3CC[C@](C)(C(=O)O)CC3)c2C(F)(F)F)C2CCC(C)(C)CC2)c(Cl)n1 [Example 732, trans-4-(4-((2-(2,4-dichloro-6-methyl-3-pyridinyl)-2-oxoethyl)(4,4-dimethylcyclohexyl)carbamoyl)-5-(trifluoromethyl)-1H-pyrazol-1-yl)-1-methylcyclohexanecarboxylic acid] | 9.12 nM
10 | Cc1cc(Cl)c(C(=O)CN(CC2CCC2)C(=O)c2cnn([C@H]3CC[C@](C)(C(=O)O)CC3)c2C(F)(F)F)c(Cl)c1 [Example 733, trans-4-(4-((cyclobutylmethyl)(2-(2,6-dichloro-4-methylphenyl)-2-oxoethyl)carbamoyl)-5-(trifluoromethyl)-1H-pyrazol-1-yl)-1-methylcyclohexanecarboxylic acid] | 2.51 nM
11 | C[C@H]1C[C@H](n2ncc(C(=O)N(CC(=O)c3c(Cl)cncc3Cl)CC(C)(C)C)c2C(F)(F)F)CC[C@H]1C(=O)O [Example 738] | 13.5 nM
12 | C[C@@H]1C[C@@H](n2ncc(C(=O)N(CC(=O)c3c(Cl)cncc3Cl)CC(C)(C)C)c2C(F)(F)F)CC[C@@H]1C(=O)O [Example 739] | 5.75 nM
13 | Cc1cc(Cl)c(C(=O)CN(CC(C)(C)C)C(=O)c2cnn([C@H]3CC[C@H](CC(=O)O)CC3)c2C(F)(F)F)c(Cl)n1 [Example 740, (trans-4-(4-((2-(2,4-dichloro-6-methyl-3-pyridinyl)-2-oxoethyl)(2,2-dimethylpropyl)carbamoyl)-5-(trifluoromethyl)-1H-pyrazol-1-yl)cyclohexyl)acetic acid] | 14.5 nM
14 | Cc1cc(Cl)c(C(=O)CN(C[C@@H]2CC2(C)C)C(=O)c2cnn([C@H]3CC[C@](C)(C(=O)O)CC3)c2C(F)(F)F)c(Cl)c1 [Example 745, trans-4-(4-((2-(2,6-dichloro-4-methylphenyl)-2-oxoethyl)(((1R)-2,2-dimethylcyclopropyl)methyl)carbamoyl)-5-(trifluoromethyl)-1H-pyrazol-1-yl)-1-methylcyclohexanecarboxylic acid] | 1 nM
15 | CC(C)[C@@H]1C[C@H](Cc2c(Cl)cncc2Cl)N(C(=O)c2cnn([C@H]3CC[C@](C)(C(=O)O)CC3)c2C(F)(F)F)C1 [Example 746, trans-4-(4-(((2R,4S)-2-((3,5-dichloro-4-pyridinyl)methyl)-4-(2-propanyl)-1-pyrrolidinyl)carbonyl)-5-(trifluoromethyl)-1H-pyrazol-1-yl)-1-methylcyclohexanecarboxylic acid] | 32.4 nM
16 | CC(C)[C@H]1C[C@H](Cc2c(Cl)cncc2Cl)N(C(=O)c2cnn([C@H]3CC[C@](C)(C(=O)O)CC3)c2C(F)(F)F)C1 [Example 747, trans-4-(4-(((2R,4R)-2-((3,5-dichloro-4-pyridinyl)methyl)-4-(2-propanyl)-1-pyrrolidinyl)carbonyl)-5-(trifluoromethyl)-1H-pyrazol-1-yl)-1-methylcyclohexanecarboxylic acid] | 3.98 nM
17 | Cc1cc(Cl)c(C(=O)CN(C(=O)c2cnn([C@H]3CC[C@H](CC(=O)O)CC3)c2C(F)(F)F)[C@H]2C[C@@H]3[C@H](C2)C3(C)C)c(Cl)c1 [Example 750, (trans-4-(4-((2-(2,6-dichloro-4-methylphenyl)-2-oxoethyl)((1R,3r,5S)-6,6-dimethylbicyclo[3.1.0]hex-3-yl)carbamoyl)-5-(trifluoromethyl)-1H-pyrazol-1-yl)cyclohexyl)acetic acid] | 1.58 nM
18 | Cc1cc(Cl)c(C(=O)CN(CC2(F)CCCC2)C(=O)c2cnn([C@H]3CC[C@](C)(C(=O)O)CC3)c2C(F)(F)F)c(Cl)n1 [Example 751, trans-4-(4-((2-(2,4-dichloro-6-methyl-3-pyridinyl)-2-oxoethyl)((1-fluorocyclopentyl)methyl)carbamoyl)-5-(trifluoromethyl)-1H-pyrazol-1-yl)-1-methylcyclohexanecarboxylic acid] | 9.33 nM
19 | CC(C)CCN(CC(=O)c1c(Cl)cccc1Cl)C(=O)c1cnn([C@H]2CC[C@](C)(C(=O)O)CC2)c1C(F)(F)F [Example 752, trans-4-(4-((2-(2,6-dichlorophenyl)-2-oxoethyl)(3-methylbutyl)carbamoyl)-5-(trifluoromethyl)-1H-pyrazol-1-yl)-1-methylcyclohexanecarboxylic acid] | 4.79 nM
20 | COc1ncc(Cl)c(C(=O)CN(CC(C)(C)C)C(=O)c2cnn([C@H]3CC[C@](C)(C(=O)O)CC3)c2C(F)(F)F)c1Cl [Example 753, trans-4-(4-((2-(3,5-dichloro-2-methoxy-4-pyridinyl)-2-oxoethyl)(2,2-dimethylpropyl)carbamoyl)-5-(trifluoromethyl)-1H-pyrazol-1-yl)-1-methylcyclohexanecarboxylic acid] | 25.1 nM
21 | O=C(O)C[C@H]1CC[C@H](n2ncc(C(=O)N(CC(=O)c3c(Cl)cncc3Cl)Cc3cc(F)cc(F)c3)c2C(F)(F)F)CC1 [Example 755, (trans-4-(4-((2-(3,5-dichloro-4-pyridinyl)-2-oxoethyl)(3,5-difluorobenzyl)carbamoyl)-5-(trifluoromethyl)-1H-pyrazol-1-yl)cyclohexyl)acetic acid] | 2.34 nM
22 | C[C@@H]1C[C@@H](n2ncc(C(=O)N(CC(=O)c3c(Cl)cncc3Cl)CC3CC(C)(C)C3)c2C(F)(F)F)CC[C@@H]1C(=O)O [Example 756, (1S,2R,4S)-4-(4-((2-(3,5-dichloro-4-pyridinyl)-2-oxoethyl)((3,3-dimethylcyclobutyl)methyl)carbamoyl)-5-(trifluoromethyl)-1H-pyrazol-1-yl)-2-methylcyclohexanecarboxylic acid] | 2.57 nM
23 | Cc1cc(C)c(C(=O)CN(C(=O)c2cnn([C@H]3CC[C@](C)(C(=O)O)CC3)c2C(F)(F)F)[C@H]2C[C@@H]3[C@H](C2)C3(C)C)c(Cl)n1 [Example 757, trans-4-(4-((2-(2-chloro-4,6-dimethyl-3-pyridinyl)-2-oxoethyl)((1R,3r,5S)-6,6-dimethylbicyclo[3.1.0]hex-3-yl)carbamoyl)-5-(trifluoromethyl)-1H-pyrazol-1-yl)-1-methylcyclohexanecarboxylic acid] | 7.94 nM
